Measurements taken from patent US8404687B2, “Disubstituted phthalazine hedgehog pathway antagonists” (Eli Lilly and Company, priority 2008, dated 2013).
Structures can show the parent of a compound that is named as a salt.

What follows are compounds tested on Gli1 transcript in Daoy cells stimulated with Shh conditioned media (assay: Functional assay for measuring the inhibition of Gli1 in Daoy cells (bDNA)). Conditions: Homo sapiens; Daoy cells treated with Shh-CM, 24 hours incubation with compound, Gli1 transcript by bDNA luminescence.
Assay type: cell-based
Description: Biological activity is determined using a functional assay in Daoy neuronal cancer cells and measures levels of Gli1 ribonucleic acid via a bDNA (branched deoxyribonucleic acid) assay system (Panomics, Inc., Fremont, Calif.). Gli was originally discovered in a Glioblastoma cell line and encodes a zinc finger protein that is activated by Shh signaling. The maximum response is obtained by inducing Gli1 transcription in the Daoy cells with conditioned medium (human embryonic kidney, HEK-293 cells stably expressing recombinant Shh) for 24 hours and then measuring the amount of stimulated Gli1 transcript. […]
The bDNA assay system utilizes the technology of branched-chain DNA to allow amplification of a target ribonucleic acid (transcript). […] The addition of a chemilumigenic substrate during the amplification step allows for detection using luminescence. […]
Daoy cells are grown to confluency in tissue culture T225-flasks in Daoy growth media containing Minimum Essential Medium (MEM) plus 10% Fetal Bovine Serum (FBS) with […] non-essential amino acids and 1 mM sodium pyruvate. The cells are removed from the T225-flasks using trypsin ethylenediaminetetraacetic acid (EDTA), centrifuged, resuspended in media, and then counted. […]

Row | SMILES | IC50 [nM]
1 | C[C@H]1CN(C(=O)Nc2ccc(F)cc2)CCN1c1nnc(-c2ccc(F)cc2)c2ccccc12 [Example 2, (S)—N-(4-Fluorophenyl)-4-(4-(4-fluorophenyl)phthalazin-1-yl)-3-methylpiperazine-1-carboxamide hydrochloride] | ~0.42

Each compound was assayed against T1, CYP3A4 (Homo sapiens, UniProt P08684) (assay: CYP3A4 Inhibition Assay). Conditions: liver microsomes, pH 7.4, probe midazolam (5 μM; formation of 1-OH-midazolam), human liver microsomal preparation, 10 μM inhibitor, 5 μM midazolam substrate.
T1 construct: from tissue; host or cells: human liver microsomes
Assay type: in vitro ADME
Description: Incubation samples are prepared by adding a human liver microsomal preparation to the test inhibitor (final concentrations 0.05 mg/mL protein, 10 μM inhibitor in 100 mM NaPO4, pH 7.4 buffer) and mixed. Samples are pre-incubated for approximately five minutes at 37° C. Following the pre-incubation period, the reaction is initiated with the addition of a solution containing NADPH and midazolam, as the enzyme substrate, (final concentration 1 mM NADPH, 5 μM midazolam). After addition of the NADPH solution, the samples are incubated for 3 min at approximately 37° C. Following the incubation period, the reaction is quenched by the addition of 50 μL of methanol (and an internal standard for chromatography) and the samples are mixed well. After quenching the reaction, the mixture is centrifuged at approximately 4000 rpm for 15 min at approximately 5° C. and analyzed by LC/MS analysis.
Samples are analyzed using HPLC/MS with gradient elution on short conventional C18 columns, (Loading Mobile Phase—95/5 Milli-Q H2O/methanol (v/v) with 1% acetic acid. Mobile Phase B—80/20 Milli-Q H2O/methanol (v/v) with 1% acetic acid. Mobile Phase C—5/95 Milli-Q H2O/methanol (v/v) with 1% acetic acid. Rinsing Mobile Phase—75/25 Milli-Q H2O/acetonitrile (v/v).
The samples are injected into a Mass Spectral Analyzer for Selected Ion Monitoring (SIM) at a mass of 342.1 (1-OH-midazolam) and 346.1 (α-hydroxymidazolam-d4 internal standard) using Turbolon Spray under positive conditions. Data are reported as % inhibition of the formation of 1-OH-midazolam in the presence of an inhibitor concentration of 10 μM.

T1 sequence (P08684 whole entry): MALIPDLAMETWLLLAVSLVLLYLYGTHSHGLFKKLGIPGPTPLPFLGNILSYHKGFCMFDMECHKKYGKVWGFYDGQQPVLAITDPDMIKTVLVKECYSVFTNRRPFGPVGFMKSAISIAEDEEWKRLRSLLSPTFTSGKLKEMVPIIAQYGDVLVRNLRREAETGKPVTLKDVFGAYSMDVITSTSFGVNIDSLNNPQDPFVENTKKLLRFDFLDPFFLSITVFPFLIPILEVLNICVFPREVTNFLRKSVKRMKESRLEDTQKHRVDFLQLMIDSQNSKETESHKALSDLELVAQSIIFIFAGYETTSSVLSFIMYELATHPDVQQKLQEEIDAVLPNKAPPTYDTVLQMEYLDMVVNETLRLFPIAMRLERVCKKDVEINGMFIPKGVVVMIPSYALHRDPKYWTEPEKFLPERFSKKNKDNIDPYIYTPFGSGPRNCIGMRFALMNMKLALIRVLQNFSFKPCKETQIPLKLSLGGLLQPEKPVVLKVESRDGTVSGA

Row | SMILES | inhibition at 3 min, 10 μM [%]
2 | C[C@H]1CN(C(=O)Nc2ccc(OC(F)(F)F)cc2)CCN1c1nnc(-c2ccc(F)cc2)c2ccccc12 [Example 48, (S)-4-(4-(4-Fluorophenyl)phthalazin-1-yl)-3-methyl-N-(4-(trifluoromethoxy)phenyl)piperazine-1-carboxamide hydrochloride] | < 45
3 | CC[C@H]1CN(c2nnc(-c3ccc(F)cc3)c3ccccc23)CCN1C(=O)Nc1ccc(F)cc1 [Example 88, (S)-2-Ethyl-N-(4-fluorophenyl)-4-(4-(4-fluorophenyl)phthalazin-1-yl)piperazine-1-carboxamide hydrochloride] | < 45
4 | C[C@H]1CN(C(=O)Nc2ccc(F)cc2C(F)(F)F)CCN1c1nnc(-c2ccc(C#N)cc2)c2ccccc12 [Example 60, (S)-4-(4-(4-Cyanophenyl)phthalazin-1-yl)-N-(4-fluoro-2-(trifluoromethyl)phenyl)-3-methylpiperazine-1-carboxamide hydrochloride] | < 45
5 | C[C@H]1CN(c2nnc(-c3ccc(C#N)cc3)c3ccccc23)CCN1C(=O)Nc1ccc(F)cc1F [Example 26, (S)-4-(4-(4-Cyanophenyl)phthalazin-1-yl)-N-(2,4-difluorophenyl)-2-methylpiperazine-1-carboxamide hydrochloride] | < 45
6 | C[C@H]1CN(c2nnc(-c3ccc(C(F)(F)F)cc3)c3ccccc23)CCN1C(=O)Nc1ccc(F)cc1F [Example 47, (S)-N-(2,4-Difluorophenyl)-2-methyl-4-(4-(4-(trifluoromethyl)phenyl)phthalazin-1-yl)piperazine-1-carboxamide hydrochloride] | < 45
7 | C[C@H]1CN(c2nnc(-c3ccc(F)cc3)c3ccccc23)CCN1C(=O)Nc1ccc(F)cc1C(F)(F)F [Example 18, (S)-N-(4-Fluoro-2-(trifluoromethyl)phenyl)-4-(4-(4-fluorophenyl)phthalazin-1-yl)-2-methylpiperazine-1-carboxamide hydrochloride] | < 45
8 | C[C@H]1CN(c2nnc(-c3ccc(C(F)(F)F)cc3)c3ccccc23)CCN1C(=O)Nc1ccc(F)cc1 [Example 45, (S)-N-(4-Fluorophenyl)-2-methyl-4-(4-(4-(trifluoromethyl)phenyl)phthalazin-1-yl)piperazine-1-carboxamide hydrochloride] | < 45
9 | CC[C@H]1CN(c2nnc(-c3ccc(F)cc3)c3ccccc23)CCN1C(=O)Nc1ccc(F)cc1C(F)(F)F [Example 87, (S)-2-Ethyl-N-(4-fluoro-2-(trifluoromethyl)phenyl)-4-(4-(4-fluorophenyl)phthalazin-1-yl)piperazine-1-carboxamide hydrochloride] | < 45
10 | CC1CN(C(=O)Nc2ccc(OC(F)(F)F)cc2)CCN1c1nnc(-c2ccc(F)cc2)c2ccccc12 (racemic) [Example 6, (±)-4-(4-(4-Fluorophenyl)phthalazin-1-yl)-3-methyl-N-(4-(trifluoromethoxy)phenyl)piperazine-1-carboxamide hydrochloride] | < 45
11 | C[C@H]1CN(C(=O)Nc2ccc(F)cc2C(F)(F)F)CCN1c1nnc(-c2ccccc2)c2ccccc12 [Example 69, (S)-N-(4-Fluoro-2-(trifluoromethyl)phenyl)-3-methyl-4-(4-phenylphthalazin-1-yl)piperazine-1-carboxamide hydrochloride] | < 45
12 | CC[C@H]1CN(c2nnc(-c3ccc(F)cc3)c3ccccc23)CCN1C(=O)Nc1ccc(F)cc1F [Example 86, (S)-N-(2,4-Difluorophenyl)-2-ethyl-4-(4-(4-fluorophenyl)phthalazin-1-yl)piperazine-1-carboxamide hydrochloride] | < 45
